“And” between values parts separate entries of the source, which are not always exact repeats. Equal entries are not always repeated.

Isoform Tau-F of Microtubule-associated protein tau, sequence (P10636 as listed by the source): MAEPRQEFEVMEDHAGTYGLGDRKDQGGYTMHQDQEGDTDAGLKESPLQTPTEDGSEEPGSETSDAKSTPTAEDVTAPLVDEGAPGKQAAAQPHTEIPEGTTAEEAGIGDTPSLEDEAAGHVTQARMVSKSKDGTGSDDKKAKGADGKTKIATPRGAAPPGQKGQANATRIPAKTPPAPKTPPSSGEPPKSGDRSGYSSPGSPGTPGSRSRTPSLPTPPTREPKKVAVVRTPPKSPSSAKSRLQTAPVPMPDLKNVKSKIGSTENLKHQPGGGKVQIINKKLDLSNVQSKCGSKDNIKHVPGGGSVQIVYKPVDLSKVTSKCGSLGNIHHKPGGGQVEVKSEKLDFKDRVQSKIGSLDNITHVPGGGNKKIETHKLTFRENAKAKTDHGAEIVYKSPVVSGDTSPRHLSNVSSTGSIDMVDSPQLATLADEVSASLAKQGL

This assay has as its target Isoform Tau-F of Microtubule-associated protein tau (Human, UniProt P10636). Description: Tau Protein Assay. As to conditions: pH 7.4. On the procedure:
The Tau content of fractions was determined by dot blot analysis using nitrocellulose membranes (0.2 μm porosity) as described previously [Cisek et al., Biophys. Chem., 170:25-33]. The membranes were blocked in 5% nonfat dry milk dissolved in blocking buffer (100 mM Tris-HCl, pH 7.4, and 150 mM NaCl) for 1 h and then incubated with primary antibody Tau5 at 1:5000 dilution for 2 h. Membranes were then washed three times with blocking buffer and incubated with horseradish peroxidase-linked secondary antibody for 2 h. After washing another three times with blocking buffer, membranes were imaged using the Enhanced Chemiluminescence Western blotting Analysis System (GE Healthcare, Buckinghamshire, UK) recorded on an Omega 12iC Molecular Imaging System and quantified using Ultra-Quant software (UltraLum, Claremont, CA, USA).
For `CCC(/C=C1\Sc2ccc(OC)cc2N1CCO)=C\c1sc2ccc(OC)cc2[n+]1CCO`, the IC50 worked out at 0.29 µM. This counts as sub-micromolar.

In the case of `N=c1ccc2nc3ccc(N)cc3sc-2c1`, the IC50 was more than 10 µM.

In turn, `C[N+](C)=c1ccc2nc3ccc(N)cc3sc-2c1` [AZURE A] yielded a half-inhibitory concentration (IC50) of more than 10 µM.

`CNc1ccc2nc3ccc(=[N+](C)C)cc-3sc2c1` [Azure B (11)] registered a half-inhibitory concentration (IC50) of 1.28 µM.

On to `C/N=c1\ccc2nc3ccc(N)cc3sc-2c1` [Azure C (13)], for which the IC50 is more than 10 µM.

Turning to `CN(C)c1ccc(N=C2C=CC(=[N+](C)C)C=C2)cc1` [Bindschedler's green (19)], the IC50 was 1.09 µM.

`CN(C)c1ccc(C(=C2C=CC(=[N+](C)C)C=C2)c2ccc(N(C)C)cc2)cc1` [CHEBI:77181]: the IC50 is 0.49 µM.

Turning to `O=C1C=CC(=C(c2ccc(O)cc2)c2ccc(O)cc2)C=C1` [Corallin], the half-maximal inhibitory concentration (IC50) was more than 10 µM.

The compound `CCCN1/C(=C/C=C/C2=[N+](CCC)c3ccccc3C2(C)C)C(C)(C)c2ccccc21` [Cyanines, 6] yielded an IC50 of 2.57 µM.

For the compound `C1=C2\Sc3ccccc3N2CCCC[n+]2c(sc3ccccc32)/C=C/C=C2\Sc3ccccc3N2CCCC[n+]2c(sc3ccccc32)/C=C/1` [Cyanines, 9], the IC50 is 0.12 µM. This IC50 is about 21-fold lower than that of the compound before.

Compound `N=C1C=CC(=C(c2ccc(N)cc2)c2ccc(N)cc2)C=C1` [Fuschin (17)] showed an IC50 of more than 10 µM.

With `CN(C)c1ccc(C(=C2C=CC(=[N+](C)C)C=C2)c2ccccc2)cc1` [Malachite green (16)], the IC50 is 0.52 µM. This counts as sub-micromolar.

Regarding `O=C(O)CCN1C(=O)/C(=C/c2ccc(-c3ccc(-c4ccccc4)cc3)o2)SC1=S` [Rhodanines, 20A], the IC50 is 0.17 µM.

`O=C(O)CCN1C(=O)/C(=C/c2ccc(-c3ccc(-c4ccc(C(=O)O)o4)cc3)o2)SC1=S` [Rhodanines, 21A] gave a half-maximal inhibitory concentration (IC50) of 0.17 µM.

For the compound `O=C(O)CCCCN1C(=O)/C(=C/c2ccc(-c3ccc(-n4cccc4)cc3)o2)SC1=S` [Rhodanines, 22A], the IC50 is 0.21 µM.

Regarding `O=C(O)CCCN1C(=O)/C(=C/c2ccc(-c3ccc(-n4cccc4)cc3)o2)SC1=S` [Rhodanines, 23A], it took 0.23 µM to reach half-maximal inhibition (IC50).

Take `O=C(O)CCN1C(=O)/C(=C/c2ccc(-c3ccc(-n4cccc4)cc3)o2)SC1=S` [Rhodanines, 24A]: the IC50 was determined as 0.24 µM.

Regarding `O=C(O)CCCCN1C(=O)/C(=C/c2ccc(-c3ccc(-c4ccccc4)cc3)o2)SC1=S` [Rhodanines, 25A], it took 0.24 µM to reach half-maximal inhibition (IC50).

`O=C(O)CCCCN1C(=O)/C(=C/c2ccc(-c3ccc(-c4ccc(C(=O)O)o4)cc3)o2)SC1=S` [Rhodanines, 26A] gave a concentration for half-maximal inhibition (IC50) of 0.26 µM. The IC50 values of the last two compounds are within 1.5-fold of each other.

For `O=C(O)CC(C(=O)O)N1C(=O)/C(=C/c2ccc(-c3cccc(Cl)c3)o2)SC1=S` (stereo unspecified) [Rhodanines, 27A], half-maximal inhibition (IC50) required 0.42 µM. Against the preceding compound, the IC50 is about 1.6-fold higher.

`O=C(O)CCN1C(=O)/C(=C/c2ccc(-c3cccc(Cl)c3)o2)SC1=S` [Rhodanines, 28A] showed an IC50 of 0.47 µM.

`O=C1/C(=C/c2ccc(-c3ccc(-n4cccc4)cc3)o2)SC(=S)N1Cc1nc2ccccc2[nH]1` [Rhodanines, 29A] had an IC50 of 0.54 µM.

Regarding `O=C(O)Cc1ccc(CN2C(=O)/C(=C/c3ccc(-c4ccc(-c5ccc(C(=O)O)o5)cc4)o3)SC2=S)cc1` [Rhodanines, 30A], the concentration for half-maximal inhibition (IC50) was determined as 0.58 µM.

`O=C(O)CCN1C(=O)/C(=C/c2ccc(-c3ccccc3Cl)o2)SC1=S` [Rhodanines, 31A] registered an IC50 of 0.65 µM.

The compound `O=C1/C(=C/c2ccc(-c3cccc(Cl)c3)o2)SC(=S)N1Cc1nc2ccccc2[nH]1` [Rhodanines, 32A] came in with an IC50 of 0.67 µM. This IC50 and that of the compound before are within 1.5-fold of each other.

Regarding `O=C(O)Cc1ccc(CN2C(=O)/C(=C/c3ccc(-c4ccc(-c5ccccc5)cc4)o3)SC2=S)cc1` [Rhodanines, 33A], it took 0.73 µM to reach half-maximal inhibition (IC50).

For `O=C(O)c1ccc(-c2ccc(-c3ccc(/C=C4\SC(=S)N(CCc5c[nH]cn5)C4=O)o3)cc2)o1` [Rhodanines, 34A], the IC50 stood at 0.75 µM.

Compound `O=C(O)Cc1ccc(CN2C(=O)/C(=C/c3ccc(-c4ccc(-n5cccc5)cc4)o3)SC2=S)cc1` [Rhodanines, 35A] yielded an IC50 of 0.78 µM.

Take `O=C(O)CN1C(=O)/C(=C/c2ccc(-c3cccc(Cl)c3)o2)SC1=S` [Rhodanines, 36A]: inhibition was half-maximal at 0.82 µM (IC50).

With `O=C(O)CCCN1C(=O)/C(=C/c2ccc(-c3ccc(-c4ccccc4)cc3)o2)SC1=S` [Rhodanines, 37A], it took 0.94 µM to reach half-maximal inhibition (IC50). This IC50 and that of the compound before are within 1.5-fold of each other.

Consider `O=C(O)CCN1C(=O)/C(=C/c2ccc(-c3cccc(Cl)c3)s2)SC1=S` [Rhodanines, 38A], for which half-maximal inhibition (IC50) was put at 0.97 µM.

As to `O=C1/C(=C/c2ccc(-c3cccc(Cl)c3)o2)SC(=S)N1CCc1c[nH]cn1` [Rhodanines, 39A], the concentration for half-maximal inhibition (IC50) was found to be 1.09 µM. The IC50 values of the last two compounds are within 1.5-fold of each other.

For `O=C(O)CCCN1C(=O)/C(=C/c2ccc(-c3cccc(Cl)c3)o2)SC1=S` [Rhodanines, 40A], it took 1.22 µM to reach half-maximal inhibition (IC50).

In turn, `O=C1/C(=C/c2ccc(-c3ccc(-c4ccccc4)cc3)o2)SC(=S)N1Cc1nc2ccccc2[nH]1` [Rhodanines, 41A] had a concentration for half-maximal inhibition (IC50) of 1.4 µM.

Turning to `CC(C(=O)O)N1C(=O)/C(=C/c2ccc(-c3cccc(Cl)c3)o2)SC1=S` (stereo unspecified) [Rhodanines, 42A], the IC50 is 1.41 µM and 4.36 µM.

In turn, `O=C1/C(=C/c2ccc(-c3ccc(-n4cccc4)cc3)o2)SC(=S)N1CCc1c[nH]cn1` [Rhodanines, 43A] came in with an IC50 of 1.85 µM.

In turn, `O=C(O)Cc1ccc(CN2C(=O)/C(=C/c3ccc(-c4cccc(Cl)c4)o3)SC2=S)cc1` [Rhodanines, 44A] had an IC50 of 1.97 µM. This IC50 and that of the compound before are within 1.5-fold of each other.

`O=C(O)CN1C(=O)/C(=C/c2ccc(-c3cccc(Cl)c3)o2)OC1=S` [Rhodanines, 46A] yielded a half-maximal inhibitory concentration (IC50) of 3.1 µM.

In turn, `O=C(O)CCCN1C(=O)/C(=C/c2cccc(-c3ccc(-c4ccccc4)cc3)n2)SC1=S` [Rhodanines, 51B] returned a 50% inhibitory concentration (IC50) of 5.03 µM. This IC50 is about 1.6-fold higher than that of the compound before.

Compound `O=C(O)CCCCN1C(=O)/C(=C/c2cccc(-c3ccc(-c4ccccc4)cc3)n2)SC1=S` [Rhodanines, 52B] came in with an IC50 of 5.03 µM. This lies in the single-digit micromolar range.

In turn, `O=C(O)CN1C(=O)/C(=C/c2ccc(-c3cccc(Cl)c3)o2)NC1=S` [Rhodanines, 53A] returned an IC50 of 6.1 µM.

Regarding `O=C1/C(=C/c2ccc(-c3ccc(-c4ccccc4)cc3)o2)SC(=S)N1CCc1c[nH]cn1` [Rhodanines, 54A], the IC50 amounted to 7.7 µM.

`O=C(O)CCN1C(=O)C(=CC2CCC(c3ccc(-c4ccccc4)cc3)C2)SC1=S` (stereo unspecified) [Rhodanines, 55A]: the IC50 was found to be 7.92 µM.

In turn, `O=C1/C(=C/c2cccc(-c3ccc(-c4ccccc4)cc3)c2)SC(=S)N1CCc1c[nH]cn1` [Rhodanines, 57B] had an IC50 of 9.38 µM.

`O=C1/C(=C/c2ccc(-c3ccc(-c4ccccc4)cc3)cc2)SC(=S)N1CCc1c[nH]cn1` [Rhodanines, 58B] came in with a half-maximal inhibitory concentration (IC50) of 12.4 µM. The IC50 values of the last two compounds are within 1.5-fold of each other.

`O=C(O)Cc1ccc(CN2C(=O)/C(=C/c3ccc(-c4ccc(-c5ccccc5)cc4)cc3)SC2=S)cc1` [Rhodanines, 59B] returned an IC50 of 14.8 µM.

The compound `O=C(O)CCN1C(=O)/C(=C/c2ccc(-c3ccc(-c4ccccc4)cc3)cc2)SC1=S` [Rhodanines, 60B] displayed an IC50 of 19.6 µM.

Compound `O=C(O)Cc1ccc(CN2C(=O)/C(=C/c3cccc(-c4ccc(-c5ccccc5)cc4)n3)SC2=S)cc1` [Rhodanines, 62B] gave an IC50 of 35.5 µM. Compared with the last compound, the IC50 is about 1.8-fold higher.

In turn, `O=C1/C(=C/c2cccc(-c3ccc(-c4ccccc4)cc3)n2)SC(=S)N1CCc1c[nH]cn1` [Rhodanines, 63B] had a 50% inhibitory concentration (IC50) of 117 µM.

`O=C(O)Cc1ccc(CN2C(=O)/C(=C/c3cccc(-c4ccc(-c5ccccc5)cc4)c3)SC2=S)cc1` [Rhodanines, 64B] registered a concentration for half-maximal inhibition (IC50) of 146 µM.

With `CCN1/C(=C/C(C)=C/c2sc3ccccc3[n+]2CC)Sc2ccccc21` [SMR000354813], the half-inhibitory concentration (IC50) worked out at 0.28 µM.

The term IC50 denotes the concentration at which inhibition is half-maximal.

(Values after BindingDB's records for doi:10.1074/jbc.M113.503474 (The Ohio State University, 2013).)
